pIC50: −log10 of the molar value.
Experiments:
CYP2C19 = target: T1, CYP2C19 (Homo sapiens, UniProt P33261); test: CYP inhibition assay, human liver microsomes, substrate S-mephenytoin; assay type: in vitro ADME; conditions: human liver microsomes, 10 min incubation, LC-MS/MS; read-out: CYP Inhibition Activity (IC50/nM) CYP2C19
T1 construct: from tissue; host or cells: human liver microsomes
Experimental: (§1) 2 μL of test compound/Positive Inhibitor working solutions is then added to the reaction plate (2 μL/well). For control, 2 μL of Acetonitrile (ACN) containing DMSO (without inhibitor) is added to the reaction plate. 20 μL of substrate pool is added to all the wells of the reaction plate. The samples are mixed in a vortexer and pre-incubated at 37° C. for 20 min. The NADPH solution is pre-warmed at 37° C. for 5 min. 20 μL of pre-warmed NADPH solution is added to the reaction plate and then incubated at 37° C. for 10 min. The reaction is terminated by adding cold ACN (200 μL/well) to the reaction mixture and centrifuging at 4,000 rpm for 20 minutes. After centrifugation, supernatant is separated and analyzed by LC-MS/MS.
(§2) % inhibition and IC50 are calculated using Graphpad Prism software.

CYP1A2 = target: T2, CYP1A2 (Homo sapiens, UniProt P05177); test: CYP inhibition assay, human liver microsomes, substrate tacrine; assay type: in vitro ADME; conditions: human liver microsomes, 10 min incubation, LC-MS/MS; read-out: CYP Inhibition Activity (IC50/nM) CYP1A2
T2 construct: from tissue; host or cells: human liver microsomes
T2 sequence (P05177 1-516): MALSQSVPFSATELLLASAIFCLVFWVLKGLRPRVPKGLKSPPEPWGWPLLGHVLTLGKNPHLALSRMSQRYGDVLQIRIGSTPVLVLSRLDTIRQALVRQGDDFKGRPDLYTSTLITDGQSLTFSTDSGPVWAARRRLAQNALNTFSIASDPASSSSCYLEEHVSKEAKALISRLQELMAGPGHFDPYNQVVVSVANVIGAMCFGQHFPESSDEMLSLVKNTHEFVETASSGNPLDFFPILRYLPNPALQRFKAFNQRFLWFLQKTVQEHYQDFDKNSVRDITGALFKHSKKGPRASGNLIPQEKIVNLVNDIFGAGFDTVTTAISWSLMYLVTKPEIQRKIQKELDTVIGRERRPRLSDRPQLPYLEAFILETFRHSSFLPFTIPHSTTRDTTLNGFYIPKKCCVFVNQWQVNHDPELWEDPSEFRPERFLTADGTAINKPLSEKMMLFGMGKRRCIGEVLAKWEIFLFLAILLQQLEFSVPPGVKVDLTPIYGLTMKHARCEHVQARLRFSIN
Experimental: as §1, §2

CYP3A4 = target: T3, CYP3A4 (Homo sapiens, UniProt P08684); test: CYP inhibition assay, human liver microsomes, substrate midazolam; assay type: in vitro ADME; conditions: human liver microsomes, 10 min incubation, LC-MS/MS; read-out: CYP Inhibition Activity (IC50/nM) CYP3A4
T3 construct: from tissue; host or cells: human liver microsomes
Experimental: as §1, §2

CYP2D6 = target: T4, CYP2D6 (Homo sapiens, UniProt P10635); test: biochemical; assay type: in vitro ADME
T4 construct: from tissue; host or cells: human liver microsomes
Experimental: 158 μL of Human Liver Microsomes working stock solution is added to a reaction plate (0.253 mg/mL, 158 μL/well). 2 μL of test compound/Positive Inhibitor working solutions is then added to the reaction plate (2 μL/well). For control, 2 μL of Acetonitrile (ACN) containing DMSO (without inhibitor) is added to the reaction plate. 20 μL of substrate pool is added to all the wells of the reaction plate. The samples are mixed in a vortexer and pre-incubated at 37° C. for 20 min. The NADPH solution is pre-warmed at 37° C. for 5 min. 20 μL of pre-warmed NADPH solution is added to the reaction plate and then incubated at 37° C. for 10 min. The reaction is terminated by adding cold ACN (200 μL/well) to the reaction mixture and centrifuging at 4,000 rpm for 20 minutes. After centrifugation, supernatant is separated and analyzed by LC-MS/MS.
as §2

CYP2C9 = target: T5, CYP2C9 (Homo sapiens, UniProt P11712); test: CYP inhibition assay, human liver microsomes, substrate diclofenac; assay type: in vitro ADME; conditions: human liver microsomes, 10 min incubation, LC-MS/MS; read-out: CYP Inhibition Activity (IC50/nM) CYP2C9
T5 construct: from tissue; host or cells: human liver microsomes
Experimental: as §1, §2

SRPK1 = SRPK1 (Homo sapiens, UniProt Q96SB4); test: In vitro SRPK1 assay (Kinase-Glo); assay type: biochemical
SRPK1, sequence (Q96SB4 whole entry, species assumed): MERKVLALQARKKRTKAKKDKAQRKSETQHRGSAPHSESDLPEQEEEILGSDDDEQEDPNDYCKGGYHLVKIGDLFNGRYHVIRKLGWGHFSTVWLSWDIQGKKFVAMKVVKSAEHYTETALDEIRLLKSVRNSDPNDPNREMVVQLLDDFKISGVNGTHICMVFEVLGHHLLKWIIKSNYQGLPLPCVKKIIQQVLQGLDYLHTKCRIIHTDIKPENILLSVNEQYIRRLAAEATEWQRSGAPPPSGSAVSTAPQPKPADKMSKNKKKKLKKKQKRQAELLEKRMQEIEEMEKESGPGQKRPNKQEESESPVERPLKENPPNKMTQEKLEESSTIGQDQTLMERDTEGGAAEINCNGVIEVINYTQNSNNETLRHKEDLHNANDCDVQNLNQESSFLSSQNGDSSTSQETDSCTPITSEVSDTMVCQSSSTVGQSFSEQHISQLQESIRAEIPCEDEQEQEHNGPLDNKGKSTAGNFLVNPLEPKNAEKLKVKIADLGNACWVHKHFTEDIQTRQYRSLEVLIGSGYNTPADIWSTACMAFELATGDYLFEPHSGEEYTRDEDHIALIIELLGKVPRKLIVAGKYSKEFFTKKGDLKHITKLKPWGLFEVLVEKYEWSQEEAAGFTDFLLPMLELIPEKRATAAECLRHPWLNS

T3 sequence (P08684 whole entry): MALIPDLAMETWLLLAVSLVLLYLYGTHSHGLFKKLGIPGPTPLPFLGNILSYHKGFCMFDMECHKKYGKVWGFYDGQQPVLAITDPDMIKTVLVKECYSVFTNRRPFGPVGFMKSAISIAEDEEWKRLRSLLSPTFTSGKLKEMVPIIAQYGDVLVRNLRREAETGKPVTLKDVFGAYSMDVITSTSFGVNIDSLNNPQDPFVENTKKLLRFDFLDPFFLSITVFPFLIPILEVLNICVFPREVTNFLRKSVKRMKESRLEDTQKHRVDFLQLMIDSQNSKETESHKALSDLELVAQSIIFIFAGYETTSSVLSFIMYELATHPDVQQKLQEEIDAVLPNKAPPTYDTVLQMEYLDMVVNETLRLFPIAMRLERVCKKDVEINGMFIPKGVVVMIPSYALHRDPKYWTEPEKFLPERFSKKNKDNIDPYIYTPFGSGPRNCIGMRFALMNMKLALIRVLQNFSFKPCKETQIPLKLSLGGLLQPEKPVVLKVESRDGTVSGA
T5 sequence (P11712 whole entry): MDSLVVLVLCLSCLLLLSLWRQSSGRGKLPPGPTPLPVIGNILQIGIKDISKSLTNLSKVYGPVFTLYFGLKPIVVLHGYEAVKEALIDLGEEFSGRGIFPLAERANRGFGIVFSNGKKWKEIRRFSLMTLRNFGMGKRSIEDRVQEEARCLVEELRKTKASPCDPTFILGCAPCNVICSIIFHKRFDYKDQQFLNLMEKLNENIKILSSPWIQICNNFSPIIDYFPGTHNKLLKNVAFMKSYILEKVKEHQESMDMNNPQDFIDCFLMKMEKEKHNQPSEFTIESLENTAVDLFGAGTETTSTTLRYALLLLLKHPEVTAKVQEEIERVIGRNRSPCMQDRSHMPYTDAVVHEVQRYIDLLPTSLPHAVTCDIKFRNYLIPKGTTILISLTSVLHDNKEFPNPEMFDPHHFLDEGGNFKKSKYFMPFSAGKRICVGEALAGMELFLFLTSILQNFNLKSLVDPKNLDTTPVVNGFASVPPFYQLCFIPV
T4 sequence (P10635 whole entry): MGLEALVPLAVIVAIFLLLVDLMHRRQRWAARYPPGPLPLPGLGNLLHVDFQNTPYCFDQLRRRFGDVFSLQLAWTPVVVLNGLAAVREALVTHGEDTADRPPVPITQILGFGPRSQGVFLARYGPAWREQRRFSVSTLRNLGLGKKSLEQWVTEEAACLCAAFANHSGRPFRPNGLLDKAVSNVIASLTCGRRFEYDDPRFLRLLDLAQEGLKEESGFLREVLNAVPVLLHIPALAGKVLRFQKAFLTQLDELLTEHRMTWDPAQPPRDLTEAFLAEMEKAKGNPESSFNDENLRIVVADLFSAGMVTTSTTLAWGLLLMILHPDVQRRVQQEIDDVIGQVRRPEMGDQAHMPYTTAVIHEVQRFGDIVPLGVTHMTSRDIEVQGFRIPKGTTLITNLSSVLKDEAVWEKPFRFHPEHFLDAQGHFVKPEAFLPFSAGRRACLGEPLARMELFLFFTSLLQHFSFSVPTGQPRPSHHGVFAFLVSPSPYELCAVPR
T1 sequence (P33261 whole entry): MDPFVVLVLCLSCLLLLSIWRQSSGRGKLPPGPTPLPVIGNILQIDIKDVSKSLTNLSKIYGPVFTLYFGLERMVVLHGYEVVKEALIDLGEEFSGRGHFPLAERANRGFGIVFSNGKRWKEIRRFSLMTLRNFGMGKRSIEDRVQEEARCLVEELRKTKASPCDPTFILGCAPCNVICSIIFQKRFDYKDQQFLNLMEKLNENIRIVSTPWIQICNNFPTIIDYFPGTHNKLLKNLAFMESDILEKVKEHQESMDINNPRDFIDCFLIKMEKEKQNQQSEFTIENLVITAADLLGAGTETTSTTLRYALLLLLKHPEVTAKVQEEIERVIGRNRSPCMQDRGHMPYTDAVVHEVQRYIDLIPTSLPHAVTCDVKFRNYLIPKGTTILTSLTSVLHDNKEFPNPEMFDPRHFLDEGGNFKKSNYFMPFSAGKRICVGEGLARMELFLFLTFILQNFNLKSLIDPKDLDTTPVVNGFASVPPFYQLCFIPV

| IC50 (CYP2C19) [nM] | IC50 (CYP1A2) [nM] | IC50 (CYP3A4) [nM] | pIC50 (CYP2D6) | IC50 (CYP2C9) [nM] | IC50 (SRPK1) [nM] | Compound |
| --- | --- | --- | --- | --- | --- | --- |
| > 30000 | > 30000 | > 30000 | < 4.52 | > 30000 | 6 | CC1(C)CCN(c2ccc(C(F)(F)F)cc2NC(=O)c2ccc(C3CCOCC3)o2)CC1 [Example 29, N-(2-(4,4-dimethylpiperidin-1-yl)-5-(trifluoromethyl)phenyl)-5-(tetrahydro-2H-pyran-4-yl)furan-2-carboxamide] |
| 16000 | 15300 | 20900 | < 4.52 | 17800 | 9 | CC1(O)CCN(c2ccc(C(F)(F)F)cc2NC(=O)c2ccccn2)CC1 [Example 1, N-(2-(4-hydroxy-4-methylpiperidin-1-yl)-5-(trifluoromethyl)phenyl)picolinamide] |
| 540 | 4360 | 1190 | 6.82 | 200 | 216 | C[C@@]1(O)CCN(c2ccc(C(F)(F)F)cc2NC(=O)c2ccc(-c3ccncc3)o2)C1 [Example 52, (R)-N-(2-(3-hydroxy-3-methylpyrrolidin-1-yl)-5-(trifluoromethyl)phenyl)-5-(pyridin-4-yl)furan-2-carboxamide] |
| 12900 | > 30000 | 4440 | < 4.52 | 2150 | 5.6 | CC1(C(=O)O)CCN(c2ccc(C(F)(F)F)cc2NC(=O)c2ccc(-c3ccncc3)o2)CC1 [Example 26, 4-methyl-1-(2-(5-(pyridin-4-yl)furan-2-carboxamido)-4-(trifluoromethyl)phenyl)-piperidine-4-carboxylic acid] |
| 1230 | 24100 | 960 | 6.62 | 610 | 17 | CC1(O)CCCN(c2ccc(C(F)(F)F)cc2NC(=O)c2ccc(-c3ccncc3)o2)CC1 (racemic) [Example 37, N-(2-(4-hydroxy-4-methylazepan-1-yl)-5-(trifluoromethyl)phenyl)-5-(pyridin-4-yl)furan-2-carboxamide] |
| 4250 | > 30000 | 750 | 5.06 | 1700 | 3.2 | CNC(=O)C1(C)CCN(c2ccc(C(F)(F)F)cc2NC(=O)c2ccc(C3CCOCC3)o2)CC1 [Example 76, N,4-dimethyl-1-(2-(5-(tetrahydro-2H-pyran-4-yl)furan-2-carboxamido)-4-(trifluoromethyl)-phenyl)piperidine-4-carboxamide] |
| 2180 | 8130 | 670 | 5.29 | 660 | 0.5 | CC1(O)CCN(c2ccc(Cl)cc2NC(=O)c2ccc(-c3ccncc3)o2)CC1 [Example 5, N-(5-chloro-2-(4-hydroxy-4-methylpiperidin-1-yl)phenyl)-5-(pyridin-4-yl)furan-2-carboxamide] |
| > 30000 | > 30000 | > 30000 | 5.32 | > 30000 | 15.1 | CC1(N)CCN(c2ccc(C(F)(F)F)cc2NC(=O)c2ccc(C3CCOCC3)o2)CC1 [Example 101, N-(2-(4-amino-4-methylpiperidin-1-yl)-5-(trifluoromethyl)-phenyl)-5-(tetrahydro-2H-pyran-4-yl)furan-2-carboxamide] |
| 6140 | > 30000 | 20900 | 5.15 | 6350 | 9 | O=C(Nc1cc(C(F)(F)F)ccc1N1CCC(O)(C2CC2)CC1)c1ccc(C2CCOCC2)o1 [Example 21, N-(2-(4-cyclopropyl-4-hydroxypiperidin-1-yl)-5-(trifluoromethyl)-phenyl)-5-(tetrahydro-2H-pyran-4-yl)furan-2-carboxamide] |
| 17800 | > 30000 | 4500 | 6.40 | > 30000 | 263 | CNCC1(C)CCN(c2ccc(C(F)(F)F)cc2NC(=O)c2ccc(-c3ccncc3)o2)CC1 [Example 79, N-(2-(4-methyl-4-((methylamino)-methyl)piperidin-1-yl)-5-(trifluoromethyl)phenyl)-5-(pyridin-4-yl)furan-2-carboxamide] |

The remaining lines, values behind:

| Compound | IC50 (CYP2C19) [nM] | IC50 (CYP1A2) [nM] | IC50 (CYP3A4) [nM] | pIC50 (CYP2D6) | IC50 (CYP2C9) [nM] | IC50 (SRPK1) [nM] |
| --- | --- | --- | --- | --- | --- | --- |
| CN(C)CC1(C)CCN(c2ccc(C3CC3)cc2NC(=O)c2ccc(C3CCOCC3)o2)CC1 [Example 93, N-(5-cyclopropyl-2-(4-((dimethylamino)methyl)-4-methylpiperidin-1-yl)phenyl)-5-(tetrahydro-2H-pyran-4-yl)furan-2-carboxamide] | 25700 | > 30000 | 29500 | 4.61 | 13700 | 28 |
| CN1CCC2(CCN(c3ccc(C(F)(F)F)cc3NC(=O)c3ccc(C4CCOCC4)o3)CC2)C1 [Example 99, N-(2-(2-methyl-2,8-diazaspiro[4.5]decan-8-yl)-5-(trifluoromethyl)phenyl)-5-(tetrahydro-2H-pyran-4-yl)furan-2-carboxamide] | > 30000 | > 30000 | 18000 | 5.52 | > 30000 | 4.8 |
| COc1ccc(N2CCC(C)(O)CC2)c(NC(=O)c2ccc(C3CCOCC3)o2)c1 [Example 15, N-(2-(4-hydroxy-4-methylpiperidin-1-yl)-5-methoxyphenyl)-5-(tetrahydro-2H-pyran-4-yl)furan-2-carboxamide] | 7690 | 6270 | 10600 | 4.72 | 2970 | 5.2 |
| CC1(C)CCN(c2ccc(Cl)cc2NC(=O)c2ccc(C3CCOCC3)o2)CC1 [Example 65, N-(5-chloro-2-(4,4-dimethylpiperidin-1-yl)phenyl)-5-(tetrahydro-2H-pyran-4-yl)furan-2-carboxamide] | > 30000 | > 30000 | > 30000 | < 4.52 | 14000 | 9.8 |
| O=C(Nc1cc(Cl)ccc1N1CCC(O)CC1)c1ccc(C2CCOCC2)o1 [Example 62, N-(5-chloro-2-(4-hydroxypiperidin-1-yl)phenyl)-5-(tetrahydro-2H-pyran-4-yl)furan-2-carboxamide] | 12200 | > 30000 | > 30000 | 4.61 | 11000 | 1.5 |
| Cc1ccc(N2CCC(C)(CO)CC2)c(NC(=O)c2ccc(C3CCOCC3)o2)c1 [Example 66, N-(2-(4-(hydroxymethyl)-4-methylpiperidin-1-yl)-5-methylphenyl)-5-(tetrahydro-2H-pyran-4-yl)furan-2-carboxamide] | 11400 | > 30000 | > 30000 | < 4.52 | 2000 | 10 |
| O=C(Nc1cc(Cl)ccc1N1CCCC(O)CC1)c1ccc(C2CCOCC2)o1 (racemic) [Example 48, N-(5-chloro-2-(4-hydroxyazepan-1-yl)phenyl)-5-(tetrahydro-2H-pyran-4-yl)furan-2-carboxamide] | 6000 | 16800 | 21100 | 4.80 | 10300 | 15 |
| O=C(Nc1cc(C2CC2)ccc1N1CCCC(O)CC1)c1ccc(-c2ccncc2)o1 (racemic) [Example 46, N-(5-cyclopropyl-2-(4-hydroxyazepan-1-yl)phenyl)-5-(pyridin-4-yl)furan-2-carboxamide] | 1180 | 6240 | 2130 | 5.82 | 1060 | 8.7 |
